Source: patent publication US20230364118A1, “RIBITOL TREATMENT” (priority 2020, published 2023)
Entries after “also recorded” stand apart in the source; their conditions may differ.

Tests used:
HPBLs = assay: In vitro micronucleus assay; format: cell-based, human
Procedure: In this GLP-compliant study, ribitol was tested to evaluate the potential to induce micronuclei in HPBLs in both the absence and presence of S9. HPBL cells were treated for 4 hours in the absence and presence of S9, and for 24 hours in the absence of S9. Purified water was used as the vehicle. In the preliminary toxicity assay, the doses tested ranged from 0.0152 to 152 μg/mL (1 mM), which was the limit dose for this assay.

[1] = Plasma protein binding, rapid equilibrium dialysis; format: in vitro ADME
Procedure: Protein binding studies with ribitol were performed in vitro using plasma from CD-1 mouse, Sprague-Dawley rat, Gottingen minipig, and human at 75 μg/mL (0.49 mM) and 200 μg/mL (1.31 mM) using the rapid equilibrium dialysis method. The percent of ribitol bound to plasma was approximately similar between the two concentrations tested in all species.

Question: For `OC[C@@H](O)[C@@H](O)[C@@H](O)CO` [ribitol, (2R,3s,4S)-Pentane-1,2,3,4,5-pentol], which cytotoxicity (HPBLs; 0.0152 to 152 μg/mL, with and without S9) is on record?
Answer: Cytotoxicity was not observed

Question: What about the induction of micronuclei (HPBLs; 19 to 152 μg/mL, presence and absence of S9) of the same compound?
Answer: negative; also recorded: devoid of genotoxicity potential

Question: And the “% Binding” value ([1]; 75 μg/mL (0.49 mM), CD-1 mouse plasma)?
Answer: 44.6 ± 1.3%

Question: And the “% Binding” value ([1]; 75 μg/mL (0.49 mM), Gottingen minipig plasma)?
Answer: 44.1 ± 1.0%

Question: What about the “% Binding” value ([1]; 75 μg/mL (0.49 mM), Sprague-Dawley rat plasma) of the same compound?
Answer: 43.3 ± 3.4%

Question: What about the “% Binding” value ([1]; 75 μg/mL (0.49 mM), human plasma) of the same compound?
Answer: 36.5 ± 1.8%

Question: What about the “% Binding” value ([1]; 200 μg/mL (1.31 mM), CD-1 mouse plasma) of the same compound?
Answer: 42.5 ± 0.3%

Question: What about the “% Binding” value ([1]; 200 μg/mL (1.31 mM), Gottingen minipig plasma) of the same compound?
Answer: 38.6 ± 2.4%

Question: What about the “% Binding” value ([1]; 200 μg/mL (1.31 mM), Sprague-Dawley rat plasma) of the same compound?
Answer: 40.3 ± 0.5%

Question: And the “% Binding” value ([1]; 200 μg/mL (1.31 mM), human plasma)?
Answer: 34.6 ± 0.3%

Question: What about the fraction unbound ([1]; human plasma, 0.49 and 1.31 mM, range) of the same compound?
Answer: 0.635 to 0.654
